Experimental data reported in ChEMBL document CHEMBL3769405, “Discovery of Potent and Selective Inhibitors of Phosphodiesterase 1 for the Treatment of Cognitive Impairment Associated with Neurodegenerative and Neuropsychiatric Diseases” (J Med Chem, 2016).
≈ marks a conversion by molar mass, not a printed value.

What was measured:
[1] = Cmax in C57BL/6 mouse brain at 10 mg/kg administered through oral gavage; format: ADME, organism-based; set-up: dose 10 mg/kg, route oral
[2] = Solubility of compound in PBS; format: physicochemical
[3] = Selectivity ratio of Ki for recombinant full lenght human PDE4A to bovine brain PDE1
[4] = Lipophilicity, logD of compound at pH 1.7; format: physicochemical; conditions: buffer
[5] = AUClast in C57BL/6 mouse plasma at 10 mg/kg administered through oral gavage; format: ADME, organism-based; set-up: dose 10 mg/kg, time 0 - last, route oral
[6] = Cmax in C57BL/6 mouse plasma at 10 mg/kg administered through oral gavage; format: ADME, organism-based; set-up: dose 10 mg/kg, route oral
[7] = AUClast in C57BL/6 mouse brain at 10 mg/kg administered through oral gavage; format: ADME, organism-based; set-up: dose 10 mg/kg, time 0 - last, route oral
[8] = Inhibition of bovine brain PDE1 using fluorescent labeled cGMP as substrate after 15 mins by IMAP assay; set-up: species or system Bos taurus
in vivo = conditions: C57BL/6, mouse, brain/plasma
[9] = Lipophilicity, logD of compound at pH 7.4; format: physicochemical; conditions: buffer
[10] = Intrinsic clearance in human liver microsomes; format: ADME; conditions: read-out: CLH
[11] = molecular target: 3',5'-cyclic-AMP phosphodiesterase 4A (Homo sapiens, UniProt P27815); assay: Inhibition of recombinant full lenght human PDE4A using fluorescent labeled cAMP as substrate after 15 mins by IMAP assay
Chain of 3',5'-cyclic-AMP phosphodiesterase 4A (P27815 whole entry): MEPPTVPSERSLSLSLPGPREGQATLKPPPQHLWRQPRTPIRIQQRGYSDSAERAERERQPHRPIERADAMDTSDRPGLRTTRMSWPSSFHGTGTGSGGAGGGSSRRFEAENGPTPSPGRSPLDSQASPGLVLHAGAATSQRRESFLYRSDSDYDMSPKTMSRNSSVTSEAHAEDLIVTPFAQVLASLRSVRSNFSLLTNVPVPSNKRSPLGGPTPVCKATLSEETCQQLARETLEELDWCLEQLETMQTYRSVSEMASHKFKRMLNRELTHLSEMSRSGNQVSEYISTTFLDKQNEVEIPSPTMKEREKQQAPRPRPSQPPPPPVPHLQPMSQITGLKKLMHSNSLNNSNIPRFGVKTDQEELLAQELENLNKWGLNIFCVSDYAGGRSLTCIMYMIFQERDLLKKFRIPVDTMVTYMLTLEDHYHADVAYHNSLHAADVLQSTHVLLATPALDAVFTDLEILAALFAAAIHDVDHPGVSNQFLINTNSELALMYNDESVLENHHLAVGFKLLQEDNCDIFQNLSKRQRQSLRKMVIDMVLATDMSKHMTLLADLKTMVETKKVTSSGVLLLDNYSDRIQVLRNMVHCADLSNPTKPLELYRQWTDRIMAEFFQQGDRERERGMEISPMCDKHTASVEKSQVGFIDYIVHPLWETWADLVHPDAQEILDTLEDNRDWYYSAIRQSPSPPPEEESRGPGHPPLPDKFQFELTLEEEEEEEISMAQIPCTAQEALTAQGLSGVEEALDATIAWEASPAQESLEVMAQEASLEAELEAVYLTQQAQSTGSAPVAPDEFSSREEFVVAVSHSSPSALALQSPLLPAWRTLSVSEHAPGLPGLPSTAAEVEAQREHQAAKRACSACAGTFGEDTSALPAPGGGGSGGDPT

Ratio Ki [3]	Ki [8]	Ki [11]	Structure (SMILES)	other results
83	3 nM	250 nM	CN1C(=O)c2c(nn(Cc3ccc(-c4cccc(F)n4)cc3)c2Oc2ccccc2)N2C1=N[C@@H]1CCC[C@@H]12	Cmax [1]: 170 ng/mL; solubility [2]: 8 µM (≈ 4.07 µg/mL); logD [4]: 1.05; AUC(0-t) [5]: 210 ng·h/mL; Cmax [6]: 165 ng/mL; AUC(0-t) [7]: 192 ng·h/mL; Kp (in vivo): 0.9; logD [9]: 4.61; CLint scaled [10]: 214 mL/min/kg
652	2.3 nM	1500 nM	CC(C)[C@@H]1CN2C(=N1)N(C)C(=O)c1c2nn(Cc2ccc(-c3ccccc3)cc2)c1Nc1ccccc1	
413	15 nM	6200 nM	CCCNc1c2c(nn1Cc1ccc(-c3cccc(F)n3)cc1)N1C(=N[C@@H]3CCC[C@@H]31)N(C)C2=O	
458	12 nM	5500 nM	CC(C)Nc1c2c(nn1Cc1ccc(-c3cccc(F)n3)cc1)N1C(=N[C@@H]3CCC[C@@H]31)N(C)C2=O	
29	160 nM	4600 nM	CN1C(=O)c2c(nn(Cc3ccc(-c4cccc(F)n4)cc3)c2N2CCCC2)N2C1=N[C@@H]1CCC[C@@H]12	
229	24 nM	5500 nM	CN1C(=O)c2c(nn(Cc3ccc(-c4cccc(F)n4)cc3)c2NC2CCCC2)N2C1=N[C@@H]1CCC[C@@H]12	
6.4	2800 nM	18000 nM	CN1C(=N)c2c(nn(Cc3ccc(C(F)(F)F)cc3)c2Nc2ccccc2)N2C1=N[C@@H]1CCC[C@@H]12	CLint scaled [10]: 32 mL/min/kg
	5.4 nM		CN1C(=O)c2c(nn(Cc3ccc(-c4cccc(F)n4)cc3)c2Nc2ccccc2)N2C1=N[C@H]1CCC[C@H]12	CLint scaled [10]: 51 mL/min/kg
2000	1.3 nM	2600 nM	CCCC(C)Nc1c2c(nn1Cc1ccc(-c3cccc(F)n3)cc1)N1C(=N[C@@H]3CCC[C@@H]31)N(C)C2=O (some centres undefined)	
> 1500	65 nM	> 100000 nM	CN1C(=O)c2c(nn(Cc3ccc(-c4ccccc4)cc3)c2Nc2ccccc2)N2CCCN=C12	
1520	29 nM	44000 nM	CN1C(=O)c2c(nn(Cc3ccc(-c4ccccc4)cc3)c2Nc2ccccc2)N2CCN=C12	
179	5.2 nM	930 nM	CN1C(=O)c2c(nn(Cc3ccc(-c4cccc(F)n4)cc3)c2Sc2ccccc2)N2C1=N[C@@H]1CCC[C@@H]12	Cmax [1]: 71 ng/mL; solubility [2]: < 1 µM; logD [4]: 2.49; AUC(0-t) [5]: 108 ng·h/mL; Cmax [6]: 93 ng/mL; AUC(0-t) [7]: 81 ng·h/mL; Kp (in vivo): 0.8; logD [9]: > 5; CLint scaled [10]: 208 mL/min/kg
5320	0.062 nM	330 nM	CN1C(=O)c2c(nn(Cc3ccc(-c4cc(F)ccn4)cc3)c2Nc2ccccc2)N2C1=N[C@@H]1CCC[C@@H]12	CLint scaled [10]: 218 mL/min/kg
2	290 nM	550 nM	O=C1NC2=N[C@@H]3CCC[C@@H]3N2c2nn(Cc3ccc(C(F)(F)F)cc3)c(Nc3ccccc3)c21	CLint scaled [10]: 22 mL/min/kg
	0.15 nM		CN1C(=O)c2c(nn(Cc3ccc(-c4cccc(F)n4)cc3)c2Nc2ccccc2)N2C1=N[C@@H]1CCC[C@@H]12 [LENRISPODUN]	
1150	2.7 nM	3100 nM	CN1C(=O)c2c(nn(Cc3ccc(C4CCCN4C)cc3)c2Nc2ccccc2)N2C1=N[C@@H]1CCC[C@@H]12 (some centres undefined)	
841	44 nM	37000 nM	CN1Cc2c(nn(Cc3ccc(C(F)(F)F)cc3)c2Nc2ccccc2)N2C1=N[C@@H]1CCC[C@@H]12	CLint scaled [10]: 64 mL/min/kg
7	1400 nM		CN1C(=O)c2c(Nc3ccccc3)n[nH]c2N2C1=N[C@@H]1CCC[C@@H]12	
2740	0.073 nM	200 nM	CN1C(=O)c2c(nn(Cc3ccc(-c4ncccc4F)cc3)c2Nc2ccccc2)N2C1=N[C@@H]1CCC[C@@H]12	CLint scaled [10]: 276 mL/min/kg
571	2.8 nM	1600 nM	CN1C(=O)c2c(nn(Cc3ccc(-c4cccc(F)n4)cc3)c2NC2CCCCC2)N2C1=N[C@@H]1CCC[C@@H]12	
154	28 nM	4300 nM	CNc1c2c(nn1Cc1ccc(-c3cccc(F)n3)cc1)N1C(=N[C@@H]3CCC[C@@H]31)N(C)C2=O	
1120	0.41 nM	460 nM	CN1C(=O)c2c(nn(Cc3ccc(-c4ccc(F)cc4)cc3)c2Nc2ccccc2)N2C1=N[C@@H]1CCC[C@@H]12	

Ratio Ki [3]	Ki [8]	Ki [11]	Structure (SMILES)	other results
857	1.4 nM	1200 nM	CN1C(=O)c2c(nn(Cc3ccc(S(N)(=O)=O)cc3)c2Nc2ccccc2)N2C1=N[C@@H]1CCC[C@@H]12	Cmax [1]: 16 ng/mL; solubility [2]: > 100 µM; logD [4]: -0.96; AUC(0-t) [5]: 785 ng·h/mL; Cmax [6]: 650 ng/mL; AUC(0-t) [7]: 15 ng·h/mL; Kp (in vivo): 0.02; logD [9]: 1.96
33	390 nM	13000 nM	CN1C(=O)c2c(nn(Cc3ccc(-c4ccccc4)cc3)c2Nc2ccccc2)N2C[C@@H](Cc3ccccc3)N=C12	
683	6 nM	4100 nM	CN1C(=O)c2c(nn(Cc3ccc(-c4ccccc4)cc3)c2Nc2ccccc2)N2C[C@@H](CO)N=C12	
350	2.2 nM	770 nM	CN1C(=O)c2c(nn(Cc3ccc(-c4cccc(F)n4)cc3)c2Cc2ccccc2)N2C1=N[C@@H]1CCC[C@@H]12	Cmax [1]: 101 ng/mL; solubility [2]: < 1 µM; logD [4]: 1.36; AUC(0-t) [5]: 134 ng·h/mL; Cmax [6]: 86 ng/mL; AUC(0-t) [7]: 154 ng·h/mL; Kp (in vivo): 1.2; logD [9]: 4.96; CLint scaled [10]: 165 mL/min/kg
816	4.9 nM	4000 nM	CN1C(=O)c2c(nn(Cc3ccc(-c4cccc(F)n4)cc3)c2NCc2ccccc2)N2C1=N[C@@H]1CCC[C@@H]12	
414	5.8 nM	2400 nM	CN1C(=O)c2c(nn(Cc3ccc(-c4cccc(F)n4)cc3)c2N)N2C1=N[C@@H]1CCC[C@@H]12	
12	31 nM	370 nM	CN1C(=O)c2c(nn(Cc3ccc(-c4cccc(F)n4)cc3)c2Nc2ccncc2)N2C1=N[C@@H]1CCC[C@@H]12	
	5.3 nM	8400 nM	CN1C(=O)c2c(nn(Cc3ccc(-c4ccccn4)cc3)c2Nc2ccccc2)N2C1=N[C@H]1CCC[C@H]12	CLint scaled [10]: 72 mL/min/kg
6760	0.074 nM	500 nM	CN1C(=O)c2c(nn(Cc3ccc(-c4ccc(F)cn4)cc3)c2Nc2ccccc2)N2C1=N[C@@H]1CCC[C@@H]12	CLint scaled [10]: 125 mL/min/kg
3750	8 nM	30000 nM	C[C@H]1CN=C2N(C)C(=O)c3c(nn(Cc4ccc(-c5ccccc5)cc4)c3Nc3ccccc3)N21	
857	14 nM	12000 nM	CN1C(=O)c2c(nn(Cc3ccc(-c4ccccc4)cc3)c2Nc2ccccc2)N2CC(C3CCOC3)N=C12 (centres undefined)	
720	25 nM	18000 nM	CN1Cc2c(nn(Cc3ccc(-c4ccccn4)cc3)c2Nc2ccccc2)N2C1=N[C@@H]1CCC[C@@H]12	CLint scaled [10]: 59 mL/min/kg
> 400	250 nM	> 100000 nM	CN1C(=O)c2c(nn(Cc3ccc(-c4ccccc4)cc3)c2Nc2ccccc2)N2C[C@@H](COCc3ccccc3)N=C12	
2060	4.8 nM	9900 nM	CN1C(=O)c2c(nn(Cc3ccc(-c4ccccc4)cc3)c2Nc2ccccc2)N2CC(C)(C)CN=C12	
2.6	770 nM	2000 nM	CN1C(=O)c2c(Nc3ccccc3)nn(CC3CCCC3)c2N2C1=N[C@@H]1CCC[C@@H]12	
33	6.6 nM	220 nM	CN1C(=O)c2c(nn(Cc3ccc(-c4cccc(F)n4)cc3)c2Oc2ccc(F)cc2)N2C1=N[C@@H]1CCC[C@@H]12	Cmax [1]: 64 ng/mL; solubility [2]: 7 µM (≈ 3.69 µg/mL); logD [4]: 1.21; AUC(0-t) [5]: 119 ng·h/mL; Cmax [6]: 88 ng/mL; AUC(0-t) [7]: 102 ng·h/mL; Kp (in vivo): 0.9; logD [9]: 4.77; CLint scaled [10]: 266 mL/min/kg
133	0.49 nM	65 nM	CN1C(=O)c2c(nn(Cc3ccc(S(C)(=O)=O)cc3)c2Nc2ccccc2)N2C1=N[C@@H]1CCC[C@@H]12	
851	7.4 nM	6300 nM	CC(C)CNc1c2c(nn1Cc1ccc(-c3cccc(F)n3)cc1)N1C(=N[C@@H]3CCC[C@@H]31)N(C)C2=O	
24	31 nM	740 nM	CN1C(=O)c2c(nn(Cc3ccc(-c4cccc(F)n4)cc3)c2N(C)c2ccccc2)N2C1=N[C@@H]1CCC[C@@H]12	
9.2	120 nM	1100 nM	CN1C(=O)c2c(nn(Cc3ccc(-c4cccc(F)n4)cc3)c2N(C)C)N2C1=N[C@@H]1CCC[C@@H]12	
750	1.6 nM	1200 nM	CN1C(=O)c2c(nn(Cc3ccc(C4CCCN4)cc3)c2Nc2ccccc2)N2C1=N[C@@H]1CCC[C@@H]12 (some centres undefined)	
1030	3.3 nM	3400 nM	C[C@@H]1CN2C(=N1)N(C)C(=O)c1c2nn(Cc2ccc(-c3ccccc3)cc2)c1Nc1ccccc1	
